The record followed here is PMC9848282, “Antinociceptive activity of doliroside B” (Pharmaceutical Biology, 2023).

Where “and” joins values, the source holds several entries; their conditions need not be identical. Equal values may be shown once.

One assay deals with NO production. Kind of assay: cells. Type of assay: cell-based. The settings on record: Mus musculus, RAW264.7; 25 µmol/L (positive control); LPS-stimulated, 24 h.
Assay [1] has as its system formalin-induced nociception in mice. The experiment in a line: Formalin test. Type of assay: in vivo.
Assay [2] concerns hot plate-induced nociception in mice. Kind of assay: Eddy's hot plate test. Type of assay: in vivo. The procedure: Female Kunming mice (20 ± 2 g) from Chengdu Dossy Experiment Animal Co., Ltd. (Sichuan, China) were used for antinociceptive experiments. These animals were kept under a constant temperature (23 ± 1 °C), humidity (40–70%), airflow speed ([…]) and noise (≤ 60 db), and maintained under a 12 h light-dark cycle. After the experiment is completed, mice were euthanized humanely. All the animal experiments were approved by the Institutional Animal Care and Use Committee of Yunnan Minzu University (permit no. 20200608).
This was performed according to a previously reported procedure (Eddy and Leimbach [1953]). The pain threshold was defined as the duration from the beginning of placing mice on the plate to the mice jumping, licking, or shaking its paws. Because the scrotum of male mice is saggy, which can be stimulated by hot plate, healthy female mice with pain threshold less than 20 s were used for hot plate test. […] After administration of the test compounds, the pain threshold was recorded at 0, 30, 60, 90, and 120 min. Among the tests in the absence and presence of NAL (5 mg/kg), i.p. injection of NAL was performed 10 min before administration of testing compounds. […]
In general terms: In hot-plate and tail-flick tests a longer latency is read as antinociception.

Assay [3] has as its system acetic acid-induced writhing in Kunming mice. Kind of assay: Acetic acid-induced writhing test. Type of assay: in vivo. The settings on record: for effect of NAL on the reduction of writhing number: absence vs presence of NAL 5 mg/kg i.p., MOP 1, IND 10, ASA 100, DB 5, DBDS 5 mg/kg, Figure 4; for fold weaker than DBDS (ED50): writhing test, ED50 compared with DBDS; for ED50: Mus musculus, read-out: ED50 (median effective dose). A general note: In writhing tests, fewer writhes than in controls are read as antinociception.

For the next assay, the target named is TRPV1 channel (Homo sapiens, UniProt Q8NER1). Kind of assay: cell-based. Type of assay: cell-based.
The next assay addresses Nav1.2 (Homo sapiens, UniProt Q99250). Type of assay: cell-based.
Setting [4] is: formalin test, absence vs presence of NAL 5 mg/kg i.p., MOP 1, IND 10, ASA 100, DB 20, DBDS 20 mg/kg, Figure 5.
Setting [5] is: hot plate test, absence vs presence of NAL 5 mg/kg i.p.

Broadly, the inhibition is the share of the control response that was lost under treatment. Higher therefore signals a strong effect. One may read the ED50 as the dose at which the effect has come halfway, by size or by number of responders. One may read the IC50 as the midpoint of a concentration-inhibition curve.

TRPV1 channel, sequence (Q8NER1 whole entry): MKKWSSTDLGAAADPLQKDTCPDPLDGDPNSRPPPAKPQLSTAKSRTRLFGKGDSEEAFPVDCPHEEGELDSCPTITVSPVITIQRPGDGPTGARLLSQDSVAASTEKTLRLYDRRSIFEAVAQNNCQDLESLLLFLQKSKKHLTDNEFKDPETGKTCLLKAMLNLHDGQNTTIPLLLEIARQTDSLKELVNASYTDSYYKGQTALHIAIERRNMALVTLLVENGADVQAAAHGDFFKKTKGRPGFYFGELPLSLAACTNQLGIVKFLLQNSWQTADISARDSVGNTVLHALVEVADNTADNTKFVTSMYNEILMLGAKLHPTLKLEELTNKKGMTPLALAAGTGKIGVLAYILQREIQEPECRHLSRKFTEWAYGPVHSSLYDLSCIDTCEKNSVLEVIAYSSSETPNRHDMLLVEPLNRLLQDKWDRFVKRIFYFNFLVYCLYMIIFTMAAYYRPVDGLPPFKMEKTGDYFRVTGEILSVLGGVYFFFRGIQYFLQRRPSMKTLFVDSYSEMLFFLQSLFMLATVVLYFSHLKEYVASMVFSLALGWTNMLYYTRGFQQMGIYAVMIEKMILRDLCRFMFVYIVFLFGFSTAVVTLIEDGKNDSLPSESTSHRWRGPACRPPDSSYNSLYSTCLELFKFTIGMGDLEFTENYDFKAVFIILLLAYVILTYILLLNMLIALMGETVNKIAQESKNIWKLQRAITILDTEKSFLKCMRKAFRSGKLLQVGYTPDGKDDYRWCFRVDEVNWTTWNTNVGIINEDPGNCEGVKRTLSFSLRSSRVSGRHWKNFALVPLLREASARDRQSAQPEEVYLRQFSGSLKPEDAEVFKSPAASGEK
Nav1.2, sequence (Q99250 whole entry): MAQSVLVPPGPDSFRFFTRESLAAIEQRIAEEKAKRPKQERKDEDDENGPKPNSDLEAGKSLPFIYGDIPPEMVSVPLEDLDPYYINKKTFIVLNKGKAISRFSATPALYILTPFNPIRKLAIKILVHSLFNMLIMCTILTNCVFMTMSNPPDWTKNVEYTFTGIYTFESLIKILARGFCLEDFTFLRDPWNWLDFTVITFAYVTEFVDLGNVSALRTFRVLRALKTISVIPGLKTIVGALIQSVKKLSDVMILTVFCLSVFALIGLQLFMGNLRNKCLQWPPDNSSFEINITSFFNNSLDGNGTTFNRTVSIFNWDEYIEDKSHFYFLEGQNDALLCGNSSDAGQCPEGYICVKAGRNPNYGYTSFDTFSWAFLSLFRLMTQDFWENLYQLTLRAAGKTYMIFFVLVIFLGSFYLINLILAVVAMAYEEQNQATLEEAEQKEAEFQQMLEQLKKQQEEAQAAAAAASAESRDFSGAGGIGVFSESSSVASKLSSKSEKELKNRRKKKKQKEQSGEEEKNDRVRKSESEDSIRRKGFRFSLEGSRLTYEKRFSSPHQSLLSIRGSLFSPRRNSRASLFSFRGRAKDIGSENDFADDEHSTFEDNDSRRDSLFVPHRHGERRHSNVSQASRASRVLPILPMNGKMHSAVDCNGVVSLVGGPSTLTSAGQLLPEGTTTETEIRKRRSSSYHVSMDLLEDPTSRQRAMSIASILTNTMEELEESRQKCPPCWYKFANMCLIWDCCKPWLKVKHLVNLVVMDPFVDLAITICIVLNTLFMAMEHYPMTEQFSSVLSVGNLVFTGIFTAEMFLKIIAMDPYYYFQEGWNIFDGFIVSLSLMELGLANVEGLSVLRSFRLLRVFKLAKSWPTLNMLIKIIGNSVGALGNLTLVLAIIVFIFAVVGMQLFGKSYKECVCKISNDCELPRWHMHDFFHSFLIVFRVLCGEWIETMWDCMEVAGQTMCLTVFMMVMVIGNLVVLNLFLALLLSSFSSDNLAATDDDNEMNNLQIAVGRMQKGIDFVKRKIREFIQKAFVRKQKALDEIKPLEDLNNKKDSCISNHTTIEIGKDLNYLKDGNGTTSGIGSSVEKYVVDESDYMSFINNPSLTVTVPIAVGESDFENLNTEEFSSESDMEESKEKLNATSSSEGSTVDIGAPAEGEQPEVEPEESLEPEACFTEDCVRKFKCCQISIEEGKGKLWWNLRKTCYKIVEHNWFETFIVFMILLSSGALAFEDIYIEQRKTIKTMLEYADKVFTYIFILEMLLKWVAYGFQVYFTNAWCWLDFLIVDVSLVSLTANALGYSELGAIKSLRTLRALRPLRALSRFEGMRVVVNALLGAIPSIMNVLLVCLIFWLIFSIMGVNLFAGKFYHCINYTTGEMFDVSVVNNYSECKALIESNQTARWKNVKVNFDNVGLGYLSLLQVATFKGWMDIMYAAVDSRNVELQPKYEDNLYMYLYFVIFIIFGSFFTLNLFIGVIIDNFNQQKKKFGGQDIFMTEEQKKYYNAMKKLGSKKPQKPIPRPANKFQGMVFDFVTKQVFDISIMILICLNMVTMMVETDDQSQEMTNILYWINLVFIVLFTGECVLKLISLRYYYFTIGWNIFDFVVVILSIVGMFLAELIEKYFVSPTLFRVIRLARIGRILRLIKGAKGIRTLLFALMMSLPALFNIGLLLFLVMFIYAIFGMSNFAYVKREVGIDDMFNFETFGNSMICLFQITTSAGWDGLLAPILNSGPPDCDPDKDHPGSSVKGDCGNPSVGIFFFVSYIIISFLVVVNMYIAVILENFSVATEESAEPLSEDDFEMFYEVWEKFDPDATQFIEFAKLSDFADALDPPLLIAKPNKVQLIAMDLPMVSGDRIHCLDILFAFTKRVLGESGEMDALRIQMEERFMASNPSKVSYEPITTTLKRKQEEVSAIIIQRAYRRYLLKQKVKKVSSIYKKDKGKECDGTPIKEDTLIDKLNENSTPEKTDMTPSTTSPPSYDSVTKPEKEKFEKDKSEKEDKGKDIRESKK

Take `[H]/N=C(/NC)NCCC[C@H](N)C(=O)O` [L-NMMA, NG-Monomethyl-L-arginine acetate]: the inhibition at 25 µM with NO production worked out at 73%.

On to doliroside B [DB], for which the “effect of NAL on the antinociceptive effect” value in assay [1] (setting [4]) and in assay [2] (setting [5]) was “not effectively removed by NAL” throughout. The Pain threshold came to 12.0 ± 4.4 s in assay [2] (2.5 mg/kg, 0 min, Table 1); 12.1 ± 3.7 s in assay [2] (2.5 mg/kg, 30 min, Table 1); 12.7 ± 4.4 s in assay [2] (2.5 mg/kg, 60 min, Table 1); 14.2 ± 4.7 s in assay [2] (2.5 mg/kg, 90 min, Table 1); 12.4 ± 3.4 s in assay [2] (2.5 mg/kg, 120 min, Table 1); 11.4 ± 2.9 s in assay [2] (5 mg/kg, 0 min, Table 1). The Pain threshold came out at 12.0 ± 3.4 s in assay [2] (5 mg/kg, 30 min, Table 1); 10.2 ± 2.9 s in assay [2] (5 mg/kg, 60 min, Table 1); 12.6 ± 3.6 s in assay [2] (5 mg/kg, 90 min, Table 1); 10.9 ± 3.7 s in assay [2] (5 mg/kg, 120 min, Table 1); 10.4 ± 3.0 s in assay [2] (10 mg/kg, 0 min, Table 1); 14.6 ± 4.9 s in assay [2] (10 mg/kg, 30 min, Table 1). Besides, the Pain threshold stood at 16.4 ± 6.2 s in assay [2] (10 mg/kg, 60 min, Table 1); 15.6 ± 4.2 s in assay [2] (10 mg/kg, 90 min, Table 1); 12.6 ± 3.7 s in assay [2] (10 mg/kg, 120 min, Table 1); 11.8 ± 3.3 s in assay [2] (20 mg/kg, absence of NAL, 0 min, Table 2); 19.6 ± 4.2 s in assay [2] (20 mg/kg, absence of NAL, 30 min, Table 2); 21.7 ± 5.9 s in assay [2] (20 mg/kg, absence of NAL, 60 min, Table 2). Further, the Pain threshold in assay [2] (20 mg/kg, absence of NAL, 90 min, Table 2) turned out to be 18.0 ± 5.6 s; in assay [2] (20 mg/kg, absence of NAL, 120 min, Table 2), 15.2 ± 4.6 s; in assay [2] (20 mg/kg, 0 min, Table 1) it was 11.8 ± 3.3 s; in assay [2] (20 mg/kg, 30 min, Table 1) it was 18.8 ± 3.6 s; in assay [2] (20 mg/kg, 60 min, Table 1), 19.7 ± 5.3 s; in assay [2] (20 mg/kg, 90 min, Table 1) it was 18.1 ± 6.3 s. In assay [2] (20 mg/kg, 120 min, Table 1), this molecule displayed a Pain threshold of 13.8 ± 4.2 s. Moreover, the “inhibition of writhing number” value in assay [3] (5 mg/kg oral, dose-response Figure 1(B-D)) was 58.7%. Further, the “effect of NAL on the reduction of writhing number” value in assay [3] is given as “Only a minor difference”. Besides, in assay [3] (writhing test in mice), the “ED50 (median effective dose)” value worked out at 4.68 mg/kg. Also, the “fold weaker than DBDS (ED50)” value in assay [3] is on record as roughly 4 fold.

Turning to `CC(=O)Oc1ccccc1C(=O)O` [ASA, Acetylsalicylic acid], the “effect of NAL on the antinociceptive effect” value in assay [1] (setting [4]) and in assay [2] (setting [5]) was “not effectively removed by NAL” in each case. In assay [1] (late phase (15-30 min), 100 mg/kg i.g.), the “inhibition of licking time” value is 64.8%. In addition, the Pain threshold in assay [2] (100 mg/kg, absence of NAL, 30 min, Table 2) turned out to be 20.3 ± 5.9 s; in assay [2] (100 mg/kg, absence of NAL, 60 min, Table 2), 19.8 ± 3.2 s; in assay [2] (100 mg/kg, absence of NAL, 90 min, Table 2) it was 14.1 ± 4.3 s; in assay [2] (100 mg/kg, 30 min, Table 1), 18.6 ± 5.2 s; in assay [2] (100 mg/kg, 60 min, Table 1), 17.8 ± 3.3 s; in assay [2] (100 mg/kg, 90 min, Table 1), 12.9 ± 4.0 s. In addition, the Pain threshold in assay [2] (100 mg/kg, 120 min, Table 1) is recorded as 10.6 ± 2.8 s. Moreover, the “inhibition of writhing number” value came to 61.2% in assay [3] (100 mg/kg oral, Figure 1(A) experiment) and 73.3% in assay [3] (200 mg/kg, dose-response Figure 1(E)). Also, the ED50 in assay [3] (writhing test in mice) is 70.1 mg/kg. Also, the “effect of NAL on the reduction of writhing number” value in assay [3] is recorded as “Only a minor difference”.

In the case of `COc1ccc2c(c1)c(CC(=O)O)c(C)n2C(=O)c1ccc(Cl)cc1` [IND, indomethacin], the “effect of NAL on the antinociceptive effect” value in assay [1] (setting [4]) and in assay [2] (setting [5]) was “not effectively removed by NAL” each time. In assay [1] (late phase (15-30 min), 10 mg/kg i.g.), the “inhibition of licking time” value is 57.3%. Also, the Pain threshold in assay [2] (10 mg/kg, absence of NAL, 0 min, Table 2) stood at 12.1 ± 2.9 s; in assay [2] (10 mg/kg, absence of NAL, 30 min, Table 2) it was 11.7 ± 3.0 s; in assay [2] (10 mg/kg, absence of NAL, 60 min, Table 2) it was 11.6 ± 2.2 s; in assay [2] (10 mg/kg, absence of NAL, 90 min, Table 2), 10.7 ± 2.1 s; in assay [2] (10 mg/kg, absence of NAL, 120 min, Table 2) it was 12.0 ± 3.2 s; in assay [2] (10 mg/kg, 0 min, Table 1), 11.3 ± 2.8 s. Further, the Pain threshold in assay [2] (10 mg/kg, 30 min, Table 1) is recorded as 11.7 ± 3.4 s; in assay [2] (10 mg/kg, 60 min, Table 1), 12.5 ± 3.0 s; in assay [2] (10 mg/kg, 90 min, Table 1), 12.1 ± 2.9 s; in assay [2] (10 mg/kg, 120 min, Table 1), 10.9 ± 2.9 s. Besides, the “inhibition of writhing number” value was found to be 58.7% in assay [3] (10 mg/kg oral, Figure 1(A) experiment) and 76.1% in assay [3] (20 mg/kg, dose-response Figure 1(D)). The ED50 in assay [3] (writhing test in mice) stood at 5.91 mg/kg. Moreover, in assay [3], the “effect of NAL on the reduction of writhing number” value is “Only a minor difference”. Also, the “fold weaker than DBDS (ED50)” value in assay [3] is “approximately 5 fold”.

With `COc1cc(CNC(=O)CCCC/C=C/C(C)C)ccc1O` [capsaicin], at TRPV1 channel (compound alone), the “direct effect on TRPV1 activity (compound alone)” value is “induced a significant activation”.

`Oc1cc2c(cc1O)CN(C(=S)NCCc1ccc(Cl)cc1)CCC2` [capsazepine]: on TRPV1 channel (TRPV1 inhibitor control), the IC50 turned out to be 7.3 ± 0.06 µM.

As to `NC1=N[C@H](O)[C@H]2[C@H]3O[C@]4(O)O[C@@H]([C@@H](O)[C@@]2(N1)[C@@H]4O)[C@]3(O)CO` [TTX, Tetrodotoxin], it took 0.016 ± 0.015 µM to reach half-maximal inhibition at Nav1.2 (IC50).

In the case of `CN1CC[C@]23c4c5ccc(O)c4O[C@H]2[C@@H](O)C=C[C@H]3[C@H]1C5` [MOP, morphine], the “effect of NAL on the antinociceptive effect” value in assay [1] (mouse, in vivo) was “removed by NAL”; in assay [2] (mouse, in vivo), “removed by NAL”. Moreover, the “inhibition of licking time” value in assay [1] (mouse, in vivo, ip, 1 mg/kg) was 55.3% and 75.9%.
